Earlier results, collected in patent publication US8101633B2, “Preparation and utility of substituted imidazopyridine compounds with hypnotic effects” (Auspex Pharmaceuticals, Inc., priority 2006, dated 2012).

Test system: cytochrome P450
Conditions: background statement

With `Cc1ccc(-c2nc3ccc(C)cn3c2CC(=O)N(C)C)cc1` [zolpidem, Zolpidem] as the compound, how does the “share of net intrinsic clearance accounted for by imidazopyridyl methyl group oxidation” value read?
The value was roughly 12%.

What about the “share of net intrinsic clearance accounted for by oxidation of the benzylic methyl group” value of the same compound?
Its value is “approximately 84%”.
